# Measured values as given in patent US10919896B2, “Preparation and uses of pyrimidinone derivatives” (Cancer Research Technology Limited, priority 2016, dated 2021).
# Target: Cdc7/Dbf4 (Homo sapiens, UniProt O00311)
# Experiment: Cdc7 Biochemical Assay Method 3: Cdc7/Dbf4 Enzyme TR-FRET Assay measuring pS40MCM2
# Settings: 1 μM ATP, read-out: Biochemical Method 3 (pIC50) (converted)
# Experimental: This protocol describes a method for assaying a compounds' ability to inhibit Cdc7 activity by measuring pS40MCM2 levels in a Cdc7/Dbf4 Enzyme TR-FRET Assay.
# 2.5 nM Cdc7/Dbf4 was incubated with 100 nM of biotin-labelled peptide 35-TDALTS(pS)PGRDLP in the presence of 1 μM ATP at 25° C. for 120 minutes. The phosphorylation of the peptide was detected using TR-FRET. Anti-Mcm2 (pS40) antibody, Terbium anti-rabbit secondary antibody and Streptavidin-Alexa Fluor488 form the detection system.
# Sequence of Cdc7/Dbf4 (O00311 whole entry): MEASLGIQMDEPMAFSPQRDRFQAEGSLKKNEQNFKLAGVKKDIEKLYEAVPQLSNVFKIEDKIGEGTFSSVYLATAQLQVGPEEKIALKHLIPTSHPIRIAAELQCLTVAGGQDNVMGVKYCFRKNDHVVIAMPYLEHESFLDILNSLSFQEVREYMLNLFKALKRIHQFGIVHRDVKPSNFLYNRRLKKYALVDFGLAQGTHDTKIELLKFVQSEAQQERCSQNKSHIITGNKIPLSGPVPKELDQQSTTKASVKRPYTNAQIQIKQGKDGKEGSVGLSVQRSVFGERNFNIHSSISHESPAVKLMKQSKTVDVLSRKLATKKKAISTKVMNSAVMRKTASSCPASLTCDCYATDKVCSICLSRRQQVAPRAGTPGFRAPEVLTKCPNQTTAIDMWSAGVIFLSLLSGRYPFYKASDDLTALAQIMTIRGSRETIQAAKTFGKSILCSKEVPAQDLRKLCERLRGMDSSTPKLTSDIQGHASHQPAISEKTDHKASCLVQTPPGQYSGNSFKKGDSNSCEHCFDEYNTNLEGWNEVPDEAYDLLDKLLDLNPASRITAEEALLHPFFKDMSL
# Sequence of Cdc7/Dbf4 (Q9UBU7 whole entry partner): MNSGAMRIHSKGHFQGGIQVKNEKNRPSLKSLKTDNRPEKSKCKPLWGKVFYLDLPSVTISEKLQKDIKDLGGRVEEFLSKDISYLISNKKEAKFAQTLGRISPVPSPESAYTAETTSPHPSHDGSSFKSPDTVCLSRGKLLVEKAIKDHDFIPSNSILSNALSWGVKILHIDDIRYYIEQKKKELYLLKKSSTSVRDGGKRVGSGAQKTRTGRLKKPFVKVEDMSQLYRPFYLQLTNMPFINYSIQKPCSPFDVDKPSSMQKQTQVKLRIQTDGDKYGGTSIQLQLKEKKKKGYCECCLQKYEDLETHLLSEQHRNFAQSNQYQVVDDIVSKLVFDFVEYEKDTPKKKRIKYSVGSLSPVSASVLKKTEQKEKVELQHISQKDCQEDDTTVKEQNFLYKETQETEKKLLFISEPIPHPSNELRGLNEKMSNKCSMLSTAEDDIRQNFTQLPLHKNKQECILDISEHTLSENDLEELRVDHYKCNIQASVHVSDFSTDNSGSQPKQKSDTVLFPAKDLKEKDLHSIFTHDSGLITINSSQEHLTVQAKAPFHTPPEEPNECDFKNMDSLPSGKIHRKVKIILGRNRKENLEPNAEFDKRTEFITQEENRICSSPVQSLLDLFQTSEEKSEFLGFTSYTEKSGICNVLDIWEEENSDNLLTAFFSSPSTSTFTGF
row,IC50,Compound
1,0.759 nM,"O=c1[nH]c(-c2ccnc(F)c2)nc(C2CCOCC2)c1Cl [Compound 13, 5-chloro-2-(2-fluoro-pyridin-4-yl)-6-(tetrahydro-pyran-4-yl)-3H-pyrimidin-4-one]"
2,5.75 nM,"CC(C)CN1CCC(c2nc(-c3ccncc3)[nH]c(=O)c2Cl)CC1 [Compound 39, 5-chloro-4-(1-isobutyl-4-piperidyl)-2-(4-pyridyl)-1H-pyrimidin-6-one]"
3,2.19 nM,O=c1[nH]c(-c2ccnc(F)c2)nc(N2CCC3(CCCN3)CC2)c1Cl [Compound 241]
4,9.55 nM,O=c1[nH]c(-c2ccnc(F)c2)nc(O[C@H]2CCCNC2)c1Cl [Compound 331]
5,14.8 nM,C[C@H]1CCCN1c1nc(-c2ccnc(F)c2)[nH]c(=O)c1Cl [Compound 278]
6,1.86 nM,CC(C)(O)[C@H]1CN(c2nc(-c3ccnc(F)c3)[nH]c(=O)c2Cl)CCN1 [Compound 187]
7,1.05 nM,O=c1[nH]c(-c2ccnc(F)c2)nc(N2CCn3cncc3C2)c1Cl [Compound 346]
8,6.61 nM,C[C@@H]1COC[C@@H](C)N1c1nc(-c2ccnc(F)c2)[nH]c(=O)c1Cl [Compound 341]
9,1.58 nM,O=c1[nH]c(-c2ccnc(F)c2)nc(N2CCCC3NCCCC32)c1Cl (centres unmarked) [Compound 264]
10,1.62 nM,O=c1[nH]c(-c2ccnc(F)c2)nc(N2CCn3ccnc3C2)c1Cl [Compound 353]
11,0.891 nM,"NC(=O)CN1CCN(c2nc(-c3ccnc(F)c3)[nH]c(=O)c2Cl)CC(F)(F)C1 [Compound 414, 2-[4-[5-chloro-2-(2-fluoro-4-pyridyl)-6-oxo-1H-pyrimidin-4-yl]-6,6-difluoro-1,4-diazepan-1-yl]acetamide]"
12,13.5 nM,O=c1[nH]c(-c2ccnc(F)c2)nc(NC2CCNCC2)c1Cl [Compound 222]
13,9.12 nM,O=c1[nH]c(-c2ccnc(F)c2)nc(N2CCOC(COc3ccccc3)C2)c1Cl (centres unmarked) [Compound 285]
14,6.46 nM,O=c1[nH]c(-c2ccnc(F)c2)nc(N2CCCN(CC(F)(F)F)CC2)c1Cl [Compound 299]
15,2.09 nM,O=c1[nH]c(-c2ccnc(F)c2)nc(N2CCN[C@H](C3(O)CC3)C2)c1Cl [Compound 311]
16,4.07 nM,CN1CCN(C2CCN(c3nc(-c4ccnc(F)c4)[nH]c(=O)c3Cl)CC2)CC1 [Compound 265]
17,4.17 nM,O=c1[nH]c(-c2ccnc(F)c2)nc(N2CCn3c(nnc3C(F)(F)F)C2)c1Cl [Compound 291]
18,11.2 nM,NC1CN(c2nc(-c3ccnc(F)c3)[nH]c(=O)c2Cl)C1 [Compound 325]
19,0.955 nM,O=c1[nH]c(-c2ccnc(F)c2)nc(O[C@@H]2CCCNC2)c1Cl [Compound 330]
20,9.77 nM,O=c1[nH]c(-c2ccnc(F)c2)nc(N2CCCC3(CCCN3)C2)c1Cl (centres unmarked) [Compound 250]
21,3.72 nM,CN(C)C(=O)N1CCN(c2nc(-c3ccnc(F)c3)[nH]c(=O)c2Cl)CC1 [Compound 240]
22,3.89 nM,CN(c1nc(-c2ccnc(F)c2)[nH]c(=O)c1Cl)[C@H]1CCCNC1 [Compound 267]
23,5.01 nM,CC(=O)N[C@H]1CCN(c2nc(-c3ccnc(F)c3)[nH]c(=O)c2Cl)C1 [Compound 274]
24,85.1 nM,O=c1[nH]c(-c2ccnc(F)c2)nc(N2CCC[C@H](Nc3ccccc3)C2)c1Cl [Compound 209]
25,36.3 nM,CCN(c1nc(-c2ccnc(F)c2)[nH]c(=O)c1Cl)C1CCOCC1 [Compound 266]

row,IC50,Compound
1,182 nM,O=c1[nH]c(-c2ccnc(F)c2)nc(OCc2ccccc2)c1Cl [Compound 294]
2,389 nM,O=c1[nH]c(-c2ccnc(F)c2)nc(OC2COC2)c1Cl [Compound 199]
3,14.1 nM,O=c1[nH]c(-c2ccnc(F)c2)nc(N2CC[C@H](O)C2)c1Cl [Compound 215]
4,129 nM,C[C@H]1COC[C@H](C)N1c1nc(-c2ccnc(F)c2)[nH]c(=O)c1Cl [Compound 342]
5,2.19 nM,O=C1NC(=O)C2(CCN(c3nc(-c4ccnc(F)c4)[nH]c(=O)c3Cl)CC2)N1 [Compound 233]
6,2 nM,O=C(NCCO)C1CCN(c2nc(-c3ccnc(F)c3)[nH]c(=O)c2Cl)CC1 [Compound 256]
7,1.32 nM,N[C@H]1CC[C@@H](Oc2nc(-c3ccnc(F)c3)[nH]c(=O)c2Cl)C1 [Compound 195]
8,2.4 nM,CC(C)C(=O)NC1CCN(c2nc(-c3ccnc(F)c3)[nH]c(=O)c2Cl)CC1 [Compound 254]
9,355 nM,O=c1[nH]c(-c2ccnc(F)c2)nc(NCc2ccccc2)c1Cl [Compound 290]
10,11 nM,O=c1[nH]c(-c2ccnc(F)c2)nc(N2CCCC23CCNCC3)c1Cl [Compound 263]
11,14.5 nM,O=c1[nH]c(-c2ccnc(F)c2)nc(N2CCC3(CC2)OCCO3)c1Cl [Compound 236]
12,10 nM,O=c1[nH]c(-c2ccnc(F)c2)nc(N2CCOC(CN3CCCCC3)C2)c1Cl (centres unmarked) [Compound 202]
13,2.75 nM,N#C[C@H]1CNCCN1c1nc(-c2ccnc(F)c2)[nH]c(=O)c1Cl [Compound 344]
14,724 nM,O=c1[nH]c(-c2ccnc(F)c2)nc(NCC2COCCN2)c1Cl (centres unmarked) [Compound 224]
15,14.8 nM,O=c1[nH]c(-c2ccnc(F)c2)nc(N2CC[C@@H](O)C2)c1Cl [Compound 214]
16,6.76 nM,C[C@@H]1COC[C@H](C)N1c1nc(-c2ccnc(F)c2)[nH]c(=O)c1Cl [Compound 343]
17,0.617 nM,O=c1[nH]c(-c2ccnc(F)c2)nc(OC2CCNCC2)c1Cl [Compound 329]
18,14.5 nM,N[C@@H]1CCN(c2nc(-c3ccnc(F)c3)[nH]c(=O)c2Cl)C1 [Compound 324]
19,1000 nM,O=c1[nH]c(-c2ccnc(F)c2)nc(N2CCCC2CN2CCOCC2)c1Cl (centres unmarked) [Compound 246]
20,4.27 nM,CN(c1nc(-c2ccnc(F)c2)[nH]c(=O)c1Cl)[C@@H]1CCCNC1 [Compound 268]
21,53.7 nM,O=c1[nH]c(-c2ccnc(F)c2)nc(N2CCC3(CCCCN3)C2)c1Cl (centres unmarked) [Compound 213]
22,17.4 nM,CC1(C)CNCCC1Nc1nc(-c2ccnc(F)c2)[nH]c(=O)c1Cl (centres unmarked) [Compound 211]
23,1.91 nM,O=c1[nH]c(-c2ccncc2)nc(N2CCNC(c3ccc(Cl)cc3)C2)c1Cl (centres unmarked) [Compound 168]
24,7.94 nM,O=c1[nH]c(-c2ccnc(F)c2)nc(N2C[C@H]3NCCO[C@@H]3C2)c1Cl [Compound 237]
25,10 nM,CC1c2nnc(C(F)(F)F)n2C(C)CN1c1nc(-c2ccnc(F)c2)[nH]c(=O)c1Cl (centres unmarked) [Compound 356]

row,Compound,IC50
1,O=c1[nH]c(-c2ccncc2)nc(N2C[C@H]3C[C@@H]2CN3)c1Cl [Compound 161],1.74 nM
2,O=c1[nH]c(-c2ccnc(F)c2)nc(N2CCCC23CCNC3)c1Cl (centres unmarked) [Compound 259],2.82 nM
3,O=c1[nH]c(-c2ccnc(F)c2)nc(N2CCC3(CCCN3)C2)c1Cl (centres unmarked) [Compound 217],45.7 nM
4,O=c1[nH]c(-c2ccnc(F)c2)nc(N2CC3CNCC3C2)c1Cl (centres unmarked) [Compound 226],3.02 nM
5,O=c1[nH]c(-c2ccnc(F)c2)nc(N2CCOC3CNCC32)c1Cl (centres unmarked) [Compound 216],1.7 nM

# Target: Cdc7/ASK (Homo sapiens, UniProt O00311)
# Experiment: Cdc7 Biochemical Assay Method 1: 384 well ELISA, whole protein substrate MCM2, antibody against Phospho MCM2 (S53)
# Set-up: purchased
# Settings: 2 μM ATP, read-out: Biochemical Method 1 (pIC50) (converted)
# How it was run: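 MCM2 protein substrate was coated on nickel-chelate plates, then Cdc7/ASK was added with 2 μM ATP in 50 mM Tris-HCl pH 8.5, 10 mM MgCl2, 1 mM DTT, 4% DMSO, 90 min at room temperature. Phospho-MCM2 (S53) was detected by ELISA with an AP secondary and PNPP absorbance. IC50 was derived from % inhibition versus no-compound and no-enzyme controls.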
# Sequence of Cdc7/ASK (O00311 whole entry): as the sequence (O00311 whole entry) above
# Sequence of Cdc7/ASK (Q9UBU7 whole entry partner): as the sequence (Q9UBU7 whole entry partner) above
row,IC50,Compound
1,1.23 nM,"O=c1[nH]c(-c2ccnc(F)c2)nc(C2CCOCC2)c1Cl [Compound 13, 5-chloro-2-(2-fluoro-pyridin-4-yl)-6-(tetrahydro-pyran-4-yl)-3H-pyrimidin-4-one]"
2,8.32 nM,"CC(C)CN1CCC(c2nc(-c3ccncc3)[nH]c(=O)c2Cl)CC1 [Compound 39, 5-chloro-4-(1-isobutyl-4-piperidyl)-2-(4-pyridyl)-1H-pyrimidin-6-one]"
3,9.33 nM,O=c1[nH]c(-c2ccncc2)nc(N2CCNC(c3ccc(Cl)cc3)C2)c1Cl (centres unmarked) [Compound 168]

row,Compound,IC50
1,O=c1[nH]c(-c2ccncc2)nc(N2C[C@H]3C[C@@H]2CN3)c1Cl [Compound 161],31.6 nM
